Entries after “also recorded” stand apart in the source; their conditions may differ.
Tested on: TBX5 expression in methylated colon cancer cell lines
Test: Demethylation with 5-Aza, TBX5 mRNA expression by RT-PCR
Format: cell-based, human
Settings: 2 μM 5-Aza for 5 days; 4 methylated cell lines with silenced or downregulated TBX5
Procedure: Total RNA was extracted from cell pellets and tissues using TRIzol Reagent according to the manufacturer's instruction (Molecular Research Center, Inc., Cincinnati, Ohio). cDNA was synthesized from 2 μg total RNA using Transcriptor Reverse Transcriptase (Roche Applied Sciences, Indianapolis, Ind.). For semi-quantitative RT-PCR, a 151 bp fragment of the TBX5 gene was amplified for 36 cycles using AmpliTaq Gold DNA polymerase (Applied Biosystems, Foster City, Calif.) as previously reported (Yu et al, Gastro), with β-actin as internal control. The primer sequences of TBX5 are: forward 5′-[…]-3′ (SEQ ID NO:2) and reverse 5′-[…]-3′ (SEQ ID NO:3). Real-time PCR was performed using SYBR Green master mixture on HT7900 system according to the manufactures' instructions (Applied Biosystems).
Cells were seeded at a density of 1×10^6 cells/mL. After 24 hours, cells were treated with 2 μM of the DNA demethylating agent 5-Aza (Sigma-Aldrich, St Louis, Mo.) for 5 days. 5-Aza was replenished every day. Controlled cells were treated with an equivalent concentration of vehicle (DMSO). Cells were then harvested for DNA and RNA extractions.

SMILES: Nc1ncn([C@H]2C[C@H](O)[C@@H](CO)O2)c(=O)n1 [5-Aza, 5-Aza-2′-deoxycytidine]
- TBX5 mRNA expression after demethylation treatment: restoration of TBX5 expression in all cell lines examined; also recorded: restored
